These compounds were tested against T1, human TSHR (Homo sapiens, UniProt P16473) (assay: Antagonist activity using TSH-induced cAMP generation in human TSHR-stably expressing CHO cells). Settings: human TSH 50 ng/mL.
T1 construct: expressed in transfected cells
Assay type: cell-based
Procedure: Measurement of antagonist activity using TSH-induced cAMP generation in human TSHR-stably expressing CHO cells as an indicator
The gene sequence (reference number: NM_000369.2) of a human TSHR was inserted into multiple cloning sites of pcDNA3.1 (+). Prepared plasmid vectors were introduced into CHO cells using a lipofection method, and human TSHR-stably expressing CHO cells were established. Obtained cells were seeded in a 96-well poly-D-lysine-coated plate at 5 × 10^4 cells/well and cultured in an F12 culture medium containing 10%FBS, 400 µg/mL of G418, 50 U/mL of penicillin, and 50 µg/mL of streptomycin under conditions of 37°C and 5% CO2 for one day. After the culture medium was removed, the cells were washed twice with 100 µL of an assay buffer solution (Hanks' Balanced Salt Solution containing 20 mM HEPES and 1 mM IBMX) per well. 30 µL of a test compound-containing assay buffer solution was added to the well and incubated at room temperature for 15 minutes. Next, 30 µL of an assay buffer solution containing human TSH (final concentration: 50 ng/mL, R&D Systems, Inc.) was added thereto and incubated at 37°C for one hour. A supernatant was removed, a Lysis and Detection Buffer 2(Cisbio) was added thereto, and the mixture was incubated at room temperature for one hour to prepare a cell lysate. According to the instruction manual of a cAMP Gs HiRange kit (Cisbio), the cell lysate, d2-labeled cAMP, and anti-cAMP Europium Cryptate labeled antibodies (Cisbio) were reacted together in a 384-well white microplate. Next, fluorescence intensity ratios (measurement wavelengths: 665 nm/620 nm) were measured using a multi-plate reader (PHERAstar FSX, BMG LABTECH, Japan). The fluorescence intensity ratio of each sample was converted to a cAMP content using a standard curve. The cAMP content was converted as a percentage of the control value to calculate a cAMP generation rate. The cAMP generation rates were plotted against the test compound concentrations using Prism (Graph Pad Software Inc.) to calculate IC50 values. The IC50's of the individual test compounds are shown in the above tables. In the tables, IC50 < 0.3 µM was denoted as A, and 0.3 µM ≤ IC50 < 30 µM was denoted as B. Cases where the IC50 values were not calculated for test compounds from which activity was recognized are denoted as C.

T1 sequence (P16473 21-764): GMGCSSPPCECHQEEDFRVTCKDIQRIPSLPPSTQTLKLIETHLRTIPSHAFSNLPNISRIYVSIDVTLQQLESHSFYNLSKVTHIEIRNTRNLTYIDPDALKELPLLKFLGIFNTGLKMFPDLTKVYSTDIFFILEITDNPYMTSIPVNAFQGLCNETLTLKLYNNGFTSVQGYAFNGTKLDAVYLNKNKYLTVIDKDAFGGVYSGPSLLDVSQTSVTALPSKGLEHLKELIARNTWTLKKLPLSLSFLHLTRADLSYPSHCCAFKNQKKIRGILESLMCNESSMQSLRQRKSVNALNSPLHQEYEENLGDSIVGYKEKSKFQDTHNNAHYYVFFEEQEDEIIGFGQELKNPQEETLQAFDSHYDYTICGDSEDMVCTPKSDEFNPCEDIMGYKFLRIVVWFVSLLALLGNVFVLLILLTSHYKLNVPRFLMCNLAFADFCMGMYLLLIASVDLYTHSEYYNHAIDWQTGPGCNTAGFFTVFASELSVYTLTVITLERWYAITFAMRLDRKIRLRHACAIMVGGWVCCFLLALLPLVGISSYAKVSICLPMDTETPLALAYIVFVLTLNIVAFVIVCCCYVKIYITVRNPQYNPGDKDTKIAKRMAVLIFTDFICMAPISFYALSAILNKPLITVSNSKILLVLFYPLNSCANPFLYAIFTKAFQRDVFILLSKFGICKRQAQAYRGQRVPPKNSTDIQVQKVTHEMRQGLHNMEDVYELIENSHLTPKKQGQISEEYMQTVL

| Compound | IC50 |
| --- | --- |
| C[C@H](OC(=O)Nc1ccc(-c2cccnc2CNC(N)=O)c(Oc2ccccc2F)c1F)C(F)(F)F [Example B-3, (S)-1,1,1-Trifluoropropan-2-yl (2-fluoro-3-(2-fluorophenoxy)-4-(2-(ureidomethyl)pyridin-3-yl)phenyl)carbamate] | < 300 nM |
| CC(C)(C)OC(=O)Nc1ccc(-c2cccnc2CCC(N)=O)c(C(=O)c2ccccc2F)c1F [Example E-3, tert-Butyl (4-(2-(3-amino-3-oxopropyl)pyridin-3-yl)-2-fluoro-3-(2-fluorobenzoyl)phenyl)carbamate] | < 300 nM |
| C[C@H](OC(=O)Nc1ccc(-c2ccnnc2CCC(N)=O)c(Cc2ccccc2F)c1F)C(F)(F)F [Example C-5, (S)-1,1,1-Trifluoropropan-2-yl (4-(3-(3-amino-3-oxopropyl)pyridazin-4-yl)-2-fluoro-3-(2-fluorobenzyl)phenyl)carbamate] | < 300 nM |
| NC(=O)CCc1ncccc1-c1ccc(NC(=O)OC2CC(F)(F)C2)c(F)c1C(=O)c1ccccc1F [Example E-6] | 300 to 30000 nM |
| C[C@H](OC(=O)Nc1ccc(-c2ccnnc2CNC(N)=O)c(Oc2ccccc2F)c1F)C(F)(F)F [Example D-2, (S)-1,1,1-Trifluoropropan-2-yl (2-fluoro-3-(2-fluorophenoxy)-4-(3-(ureidomethyl)pyridazin-4-yl)phenyl)carbamate] | 300 to 30000 nM |
| CC(C)(C)OC(=O)Nc1c(F)cc(-c2cccnc2CNC(N)=O)c(Cc2ccccc2F)c1F [Example A-14, tert-Butyl (2,6-difluoro-3-(2-fluorobenzyl)-4-(2-(ureidomethyl)pyridin-3-yl)phenyl)carbamate] | < 300 nM |
| NC(=O)NCc1ncccc1-c1ccc(NC(=O)OCc2ccccc2F)c(F)c1Cc1ccccc1F [Example A-36] | < 300 nM |
| NC(=O)NCc1ncccc1-c1ccc(NC(=O)N2CCCC2)c(F)c1Cc1ccccc1F [Example G-6] | 300 to 30000 nM |
| Cc1nnccc1-c1ccc(NC(=O)OC(C)(C)C)c(F)c1Cc1ccccc1F [Example C-9, tert-Butyl (2-fluoro-3-(2-fluorobenzyl)-4-(3-methylpyridazin-4-yl)phenyl)carbamate] | 300 to 30000 nM |
| NC(=O)NCc1ncccc1-c1ccc(NC(=O)OC2CCC(F)(F)C2)c(F)c1Cc1ccccc1F (stereo not drawn) [Example A-27, 3,3-Difluorocyclopentyl (2-fluoro-3-(2-fluorobenzyl)-4-(2-(ureidomethyl)pyridin-3-yl)phenyl)carbamate] | < 300 nM |
| CON(C(=O)Nc1ccc(-c2cccnc2CNC(N)=O)c(Cc2ccccc2F)c1F)C1CCCC1 [Example G-9, 1-Cyclopentyl-3-(2-fluoro-3-(2-fluorobenzyl)-4-(2-(ureidomethyl)pyridin-3-yl)phenyl)-1-methoxyurea] | 300 to 30000 nM |
| C[C@H]1CN(Cc2c(-c3cccnc3CNC(N)=O)ccc(NC(=O)OC(C)(C)C)c2F)CCO1 [Example F-5, tert-Butyl (S)-(2-fluoro-3-((2-methylmorpholino)methyl)-4-(2-(ureidomethyl)pyridin-3-yl)phenyl)carbamate] | > 30000 nM |
| NC(=O)NCc1ncccc1-c1ccc(NC(=O)C2CCCO2)c(F)c1Cc1ccccc1F (stereo not drawn) [Example G-5] | 300 to 30000 nM |
| CC(C)(C)OC(=O)Nc1ccc(-c2cccnc2CNC(N)=O)c(Cc2ccccc2O)c1F [Example A-19, tert-Butyl (2-fluoro-3-(2-hydroxybenzyl)-4-(2-(ureidomethyl)pyridin-3-yl)phenyl)carbamate] | < 300 nM |
| NC(=O)NCc1ncccc1-c1ccc(NC(=O)OC2CC(F)(F)C2)c(F)c1Oc1ccccc1F [Example B-5] | 300 to 30000 nM |
| NC(=O)NCc1nnccc1-c1ccc(NC(=O)OC2(C3CC3)CC2)c(F)c1Cc1ccccc1F [Example C-10] | 300 to 30000 nM |
| CC(C)(C)OC(=O)Nc1ccc(-c2cccnc2CCC(N)=O)c(Oc2ccccc2F)c1F [Example B-6, tert-Butyl (4-(2-(3-amino-3-oxopropyl)pyridin-3-yl)-2-fluoro-3-(2-fluorophenoxy)phenyl)carbamate] | < 300 nM |
| NC(=O)NCc1ncccc1-c1ccc(NC(=O)OCC2CCOC2)c(F)c1Cc1ccccc1F (stereo not drawn) [Example A-35] | < 300 nM |
| CC(C)C(=O)Nc1ccc(-c2cccnc2CNC(N)=O)c(Cc2ccccc2F)c1F [Example G-2, N-(2-Fluoro-3-(2-fluorobenzyl)-4-(2-(ureidomethyl)pyridin-3-yl)phenyl)isobutylamide] | 300 to 30000 nM |
| Cc1c(NC(=O)OC(C)(C)C)ccc(-c2cccnc2CNC(N)=O)c1Cc1ccccc1F [Example A-13, tert-Butyl (3-(2-fluorobenzyl)-2-methyl-4-(2-(ureidomethyl)pyridin-3-yl)phenyl)carbamate] | < 300 nM |
| NC(=O)NCc1ncccc1-c1ccc(NC(=O)OC2CCOC2)c(F)c1Cc1ccccc1F (stereo not drawn) [Example A-28] | 300 to 30000 nM |
| CC(C)(CO)OC(=O)Nc1ccc(-c2cccnc2CNC(N)=O)c(Cc2ccccc2F)c1F [Example A-21, 1-Hydroxy-2-methylpropan-2-yl (2-fluoro-3-(2-fluorobenzyl)-4-(2-(ureidomethyl)pyridin-3-yl)phenyl)carbamate] | 300 to 30000 nM |
| CC(C)(C)OC(=O)Nc1ccc(-c2cccnc2CNC(N)=O)c(Cc2ccccc2OCc2ccccc2)c1F [Example A-18, tert-Butyl (3-(2-(benzyloxy)benzyl)-2-fluoro-4-(2-(ureidomethyl)pyridin-3-yl)phenyl)carbamate] | 300 to 30000 nM |
| Cc1cnc(CNC(N)=O)c(-c2ccc(NC(=O)OC(C)(C)C)c(F)c2Cc2ccccc2F)c1 [Example A-10, tert-Butyl (2-fluoro-3-(2-fluorobenzyl)-4-(5-methyl-2-(ureidomethyl)pyridin-3-yl)phenyl)carbamate] | 300 to 30000 nM |
| CN(C)CCCOC(=O)Nc1ccc(-c2cccnc2CNC(N)=O)c(Cc2ccccc2F)c1F [Example A-30, 3-(Dimethylamino)propyl (2-fluoro-3-(2-fluorobenzyl)-4-(2-(ureidomethyl)pyridin-3-yl)phenyl)carbamate] | 300 to 30000 nM |
| C[C@H](OC(=O)Nc1ccc(-c2ccnnc2CCC(N)=O)c(Oc2ccccc2F)c1F)C(F)(F)F [Example D-4, (S)-1,1,1-Trifluoropropan-2-yl (4-(3-(3-amino-3-oxopropyl)pyridazin-4-yl)-2-fluoro-3-(2-fluorophenoxy)phenyl)carbamate] | < 300 nM |
| CC(C)(C)OC(=O)Nc1ccc(-c2cccnc2CNC(N)=O)c(CN2CCCC(F)(F)C2)c1F [Example F-6, tert-Butyl (3-((3,3-difluoropiperidin-1-yl)methyl)-2-fluoro-4-(2-(ureidomethyl)pyridin-3-yl)phenyl)carbamate] | 300 to 30000 nM |
| NC(=O)CCc1ncccc1-c1ccc(NC(=O)OC2CC(F)(F)C2)c(F)c1C(=O)c1ccccc1C(F)(F)F [Example E-9, 3,3-Difluorocyclobutyl (4-(2-(3-amino-3-oxopropyl)pyridin-3-yl)-2-fluoro-3-(2-(trifluoromethyl)benzoyl)phenyl)carbamate] | 300 to 30000 nM |
| CC(C)(C)OC(=O)Nc1ccc(-c2cccnc2CNC(N)=O)c(Cc2cccc(F)c2)c1F [Example A-15] | 300 to 30000 nM |
| CC(c1ccccc1)c1cc(NC(=O)OC(C)(C)C)ccc1-c1cccnc1CCC(N)=O (stereo not drawn) [Example A-12, tert-Butyl (4-(2-(3-amino-3-oxopropyl)pyridine-3-yl)-3-(1-phenylethyl)phenyl)carbamate] | 300 to 30000 nM |

Source: patent publication EP4818158A1, “BIARYL COMPOUND” (Kissei Pharmaceutical Co., Ltd., priority 2023, dated 2025)
